Data on one molecule can be found in patent US20140106354A1, “Method of Diagnosing Cancer” (GARVAN INSTITUTE OF MEDICAL RESEARCH, priority 2011, published 2014).

Common to all, as to assay type: cell-based, human
The test system of experiment [1] is DLEC1. The experiment in a line: Positive control: re-expression and demethylation of DLEC1 (qPCR, clonal bisulphite sequencing). The note with it: A2780 and CaOV3 cells treated with 5-Aza-dC. The protocol:
(§1) Experiments were performed in triplicate using ovarian cancer cell lines A2780 and CaOV3, derived from primary Type II EOC. Cell lines were treated at 30% confluence with 5 μM and 2.5 μMrespectively (concentrations previously optimized to minimize cellular toxicity, data not shown), with the DNA methyltransferase inhibitor 5-aza-2′ deoxycytidine (5-Aza-dC), (Sigma Aldrich, St. Louis Mo., USA) for 24 hours. Cells were then expanded to 90% confluency, media changed every 24 hr before extracting RNA (RNeasy, Qiagen). As a positive control, re-expression and DNA demethylation for the methylated gene DLEC1 was verified by qPCR and clonal bisulphite sequencing.
(Quantitative PCR measures a nucleic acid by following its amplification.)

For experiment [2], the system named is A2780 cells. The experiment can be described thus: Pharmacological reactivation of methylated genes by 5-Aza-dC, Affymetrix U133 plus 2 expression arrays, A2780. The settings on record: A2780, 5 μM, 24 hours. The protocol:
as §1
(§2) Total RNA from A2780 and CaOV3 cell lines, plus and minus treatment with 5-Aza-dC was characterized on the Agilent bioanalyzer RNA nano chip (Agilent, Foster City Calif., USA) for an RNA integrity number (RIN) of >9.0, labeled and hybridized to Affymetrix human genome U133 plus 2 GeneChips essentially according to manufacturer's instructions. The GeneChip scans were analyzed by GCOS (Affymetrix) and resulting probeset intensities normalized by the robust multi-array average (RMA) method (Irizarry, et al., Biostatistics 4: 249-264, 2003). […] The data were normalized separately for each cell line and robust multichip average (RMA) values for analysis were imported into Genespring GX 7.3. Genes re-expressed by 5-Aza-dC were identified as “absent” (undetectable) in all three replicate untreated samples and “present” or “marginal” (detectable) in two of three replicate 5-Aza-dC treated samples.
(§3) Three steps were implemented to identify aberrantly silenced and methylated genes in EOC. First, to identify genes potentially silenced by DNA methylation, genome wide epigenetic reexpression profiles were generated for two ovarian cancer cell lines. […] Genes showing potential methylation-based silencing were identified if they were undetectable in the untreated cells, but re-expressed by 5-Aza-dC treatments. Using these criteria 947 and 1091 probesets were identified in A2780 and CaOV3 cells respectively, that were reactivated.

Experiment [3] relates to CaOV3 cells. The experiment can be described thus: Pharmacological reactivation of methylated genes by 5-Aza-dC, Affymetrix U133 plus 2 expression arrays, CaOV3. The settings on record: CaOV3, 2.5 μM, 24 hours. Here is the method:
as §1, §2, §3

With `Nc1ncn([C@H]2C[C@H](O)[C@@H](CO)O2)c(=O)n1` [5-Aza-dC, 5-aza-2′ deoxycytidine], the “re-expression and demethylation of the methylated gene DLEC1” value in experiment [1] is “induce re-expression and demethylation”. The “probesets reactivated (undetectable in untreated cells, re-expressed by 5-Aza-dC)” value amounted to 947 probesets in experiment [2] (HGU133 plus 2.0) and 1091 probesets in experiment [3] (HGU133 plus 2.0). Also, the “Fold Change 5-aza-dC vs” value in experiment [2] (ARMXC1 mRNA, probeset 218694_at) is 1.19; in experiment [2] (HSPA2 mRNA, probeset 211538_s_at), 33.78; in experiment [2] (IL18 mRNA, probeset 206295_at), 1.20; in experiment [2] (LTBP2 mRNA, probeset 223690_at) it was 1.57; in experiment [2] (PAPLN mRNA, probeset 226435_at), 2.78; in experiment [2] (PARVA mRNA, probeset 222454_s_at), 1.78. In addition, the “Fold Change 5-aza-dC vs” value in experiment [2] (PEG3 mRNA, probeset 209242_at) came out at 3.87; in experiment [2] (PYCARD mRNA, probeset 221666_s_at), 3.72; in experiment [2] (SCIN1 mRNA, probeset 1552365_at), 1.28; in experiment [2] (SGNE1 mRNA, probeset 203889_at), 4.15; in experiment [2] (SOCS1 mRNA, probeset 210001_s_at), 4.80; in experiment [2] (SPOCK2 mRNA, probeset 202524_s_at), 1.41. Moreover, the “Fold Change 5-aza-dC vs” value in experiment [2] (ZNF177 mRNA, probeset 207417_s_at) came out at 1.61; in experiment [2] (ZNF542 mRNA, probeset 239250_at), 2.35; in experiment [3] (BMP6 mRNA, probeset 206176_at), 1.25; in experiment [3] (CST6 mRNA, probeset 231248_at), 1.96; in experiment [3] (ICAM4 mRNA, probeset 207194_s_at) it was 1.89; in experiment [3] (KLF4 mRNA, probeset 220266_s_at), 3.78. In addition, the “Fold Change 5-aza-dC vs” value in experiment [3] (LOC134466 RNA, probeset 244289_at) was found to be 1.18; in experiment [3] (PTGER mRNA, probeset 213933_at), 1.32; in experiment [3] (TLE4 mRNA, probeset 204872_at) it was 1.20.
